Laboratory results from patent US7858635B2 (priority 2005, dated 2010).

How the values were obtained:
M1 muscarinic receptor = molecular target: T1, M1 muscarinic receptor (Homo sapiens, UniProt P11229); test: Functional mobilization of intracellular calcium (FLIPR, Fluo-3), M1-CHO cells; format: cell-based; conditions: compound nos. 1-454; for Emax: 100% efficacy is the maximum response obtained with the Carbachol control, read-out: M1 Efficacy; for M1 Activity: M1-CHO cells, calcium mobilization
T1 construct: expressed in transfected cells; host or cells: CHO cells (M1-CHO, under zeocin and G418 selection)
T1 sequence (P11229 1-460): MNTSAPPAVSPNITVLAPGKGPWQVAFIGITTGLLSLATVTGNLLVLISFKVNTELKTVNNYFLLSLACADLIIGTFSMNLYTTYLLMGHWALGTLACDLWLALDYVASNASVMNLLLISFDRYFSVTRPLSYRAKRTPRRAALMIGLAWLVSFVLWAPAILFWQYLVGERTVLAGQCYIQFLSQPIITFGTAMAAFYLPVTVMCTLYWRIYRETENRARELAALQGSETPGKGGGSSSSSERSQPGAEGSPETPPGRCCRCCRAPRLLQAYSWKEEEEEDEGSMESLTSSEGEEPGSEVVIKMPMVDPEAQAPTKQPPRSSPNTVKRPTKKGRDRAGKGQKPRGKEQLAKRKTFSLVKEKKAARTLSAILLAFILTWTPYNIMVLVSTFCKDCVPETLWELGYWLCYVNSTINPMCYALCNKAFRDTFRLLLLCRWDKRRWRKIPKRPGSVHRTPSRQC
How it was run: (§1)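 Intracellular calcium was tracked by fluorescence (488/540 nm) over 60 sec after compound addition to dye-loaded CHO cells expressing the receptor. Inhibitory activity used a 15 min pre-incubation before carbachol at the subtype EC80.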

M4 muscarinic receptor = molecular target: T2, M4 muscarinic receptor (Homo sapiens, UniProt P08173); test: Functional mobilization of intracellular calcium (FLIPR, Fluo-3), M4-CHO cells; format: cell-based; conditions: compound nos. 1-454; for Emax: 100% efficacy is the maximum response obtained with the Carbachol control, read-out: M4 Efficacy; for M4 Activity: M4-CHO cells, calcium mobilization
T2 construct: expressed in transfected cells; host or cells: CHO cells (M4-CHO, under puromycin, zeocin and blasticidin selection)
T2 sequence (P08173 1-479): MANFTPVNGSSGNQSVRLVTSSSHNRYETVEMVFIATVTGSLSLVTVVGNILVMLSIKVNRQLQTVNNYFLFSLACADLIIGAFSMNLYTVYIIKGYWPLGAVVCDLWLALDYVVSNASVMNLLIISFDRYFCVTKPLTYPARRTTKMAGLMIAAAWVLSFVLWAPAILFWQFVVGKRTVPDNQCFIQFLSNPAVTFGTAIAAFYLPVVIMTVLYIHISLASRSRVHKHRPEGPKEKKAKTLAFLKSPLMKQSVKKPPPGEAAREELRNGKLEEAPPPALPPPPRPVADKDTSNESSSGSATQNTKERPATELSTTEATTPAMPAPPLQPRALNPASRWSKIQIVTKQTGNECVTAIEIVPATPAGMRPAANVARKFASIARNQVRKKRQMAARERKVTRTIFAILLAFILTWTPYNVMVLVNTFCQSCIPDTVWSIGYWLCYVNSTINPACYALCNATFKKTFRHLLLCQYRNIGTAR
How it was run: as §1

Structure (SMILES) | Emax (M1 muscarinic receptor) [%] | M1 Activity (M1 muscarinic receptor) | Emax (M4 muscarinic receptor) [%] | M4 Activity (M4 muscarinic receptor)
CCOC(=O)N1CCC(N2CCC3(CC2)CN(C(C)=O)c2ccc(OC)cc23)CC1 [compound 340] | < 65 | ++ (activity was measured to be between 0.7 μM and 3.0 μM) | < 55 | + (activity was measured to be greater than or equal to 4.0 μM)
CCCC1CCC(N2CCC3(CC2)CNc2ccc(Cl)cc23)CC1 (centres unmarked) [compound 341] | < 65 | + (activity was measured to be greater than or equal to 3.0 μM) | < 55 | + (activity was measured to be greater than or equal to 4.0 μM)
c1ccc2c(c1)NCC21CCN(CC2CCCCC2)CC1 [compound 342] | 65 to 85 | +++ (activity was measured to be less than or equal to 0.7 μM) | 55 to 70 | ++ (activity was measured to be between 0.1 μM and 4.0 μM)
CC(=O)N1CC2(CCN(C3CCCC3)CC2)c2cc(F)ccc21 [compound 343] | 65 to 85 | +++ (activity was measured to be less than or equal to 0.7 μM) | < 55 | +++ (activity was measured to be less than or equal to 0.1 μM)
CCOC(=O)N1C2CCC1CC(N1CCC3(CC1)CN(C(=O)O[C@@H]1CCOC1)c1ccc(F)cc13)C2 (some centres unmarked) [compound 344] | 65 to 85 | +++ (activity was measured to be less than or equal to 0.7 μM) | < 55 | ++ (activity was measured to be between 0.1 μM and 4.0 μM)
CC(C)OC(=O)N1C2CCC1CC(N1CCC3(CC1)CN(C(=O)C1CC1)c1ccc(F)cc13)C2 (centres unmarked) [compound 345] | < 65 | +++ (activity was measured to be less than or equal to 0.7 μM) | < 55 | ++ (activity was measured to be between 0.1 μM and 4.0 μM)
CC#CCOC(=O)N1CC2(CCN(C3CCN(C(=O)OCC)CC3)CC2)c2cc(F)ccc21 [compound 346] | < 65 | +++ (activity was measured to be less than or equal to 0.7 μM) | < 55 | + (activity was measured to be greater than or equal to 4.0 μM)
CCOC(=O)N(C)[C@H]1CC2(CCN(C[C@H]3C[C@H]4CC[C@H]3C4)CC2)c2ccccc21 [compound 347] | 65 to 85 | +++ (activity was measured to be less than or equal to 0.7 μM) | > 70 | ++ (activity was measured to be between 0.1 μM and 4.0 μM)
Clc1ccc2c(c1)C1(CCN(C3CCC4CCC3C4)CC1)CN2 (centres unmarked) [compound 348] | > 85 | +++ (activity was measured to be less than or equal to 0.7 μM) | > 70 | ++ (activity was measured to be between 0.1 μM and 4.0 μM)
CCCS(=O)(=O)N1CC2(CCN(C3CC4CCC(C3)N4C(=O)OCC)CC2)c2cc(F)ccc21 (centres unmarked) [compound 349] | > 85 | ++ (activity was measured to be between 0.7 μM and 3.0 μM) | > 70 | ++ (activity was measured to be between 0.1 μM and 4.0 μM)
Cc1ccc2c(c1)C1(CCN(C3CC4CCC3C4)CC1)CN2 (centres unmarked) [compound 350] | > 85 | +++ (activity was measured to be less than or equal to 0.7 μM) | > 70 | +++ (activity was measured to be less than or equal to 0.1 μM)
CCOC(=O)N1C2CCC1CC(N1CCC3(CC1)CNc1ccc(Cl)cc13)C2 (centres unmarked) [compound 351] | 65 to 85 | +++ (activity was measured to be less than or equal to 0.7 μM) | > 70 | ++ (activity was measured to be between 0.1 μM and 4.0 μM)
CCOC(=O)N1CCC(N2CCC3(CC2)CNc2ccccc23)CC1 [compound 352] | > 85 | +++ (activity was measured to be less than or equal to 0.7 μM) | > 70 | + (activity was measured to be greater than or equal to 4.0 μM)
CC#CCOC(=O)N1CCC(N2CCC3(CC2)CN(C(=O)N(C)C)c2ccc(F)cc23)CC1 [compound 353] | > 85 | +++ (activity was measured to be less than or equal to 0.7 μM) | 55 to 70 | + (activity was measured to be greater than or equal to 4.0 μM)
Cc1ccc2c(c1)C1(CCN(C3CC4CCC3C4)CC1)CN2S(=O)(=O)c1ccccc1 (centres unmarked) [compound 354] | 65 to 85 | + (activity was measured to be greater than or equal to 3.0 μM) | 55 to 70 | + (activity was measured to be greater than or equal to 4.0 μM)
O=C(O[C@H]1CCOC1)N1C2CCC1CC(N1CCC3(CCc4ccccc43)CC1)C2 (some centres unmarked) [compound 355] | 65 to 85 | ++ (activity was measured to be between 0.7 μM and 3.0 μM) | 55 to 70 | ++ (activity was measured to be between 0.1 μM and 4.0 μM)
CN([C@H]1CC2(CCN(C[C@H]3C[C@H]4CC[C@H]3C4)CC2)c2ccccc21)S(C)(=O)=O [compound 357] | < 65 | ++ (activity was measured to be between 0.7 μM and 3.0 μM) | < 55 | + (activity was measured to be greater than or equal to 4.0 μM)
CC(=O)N[C@H]1CC2(CCN(C3CCC[C@@H](C)C3)CC2)c2ccccc21 (some centres unmarked) [compound 358] | 65 to 85 | +++ (activity was measured to be less than or equal to 0.7 μM) | 55 to 70 | ++ (activity was measured to be between 0.1 μM and 4.0 μM)
CCOC(=O)N1C2CCC1CC(N1CCC3(CC1)C[C@H](NC(C)=O)c1ccccc13)C2 (some centres unmarked) [compound 359] | < 65 | ++ (activity was measured to be between 0.7 μM and 3.0 μM) | < 55 | ++ (activity was measured to be between 0.1 μM and 4.0 μM)
CCCOC(=O)N1C2CCC1CC(N1CCC3(CC1)CN(C(=O)N(C)C)c1ccc(F)cc13)C2 (centres unmarked) [compound 360] | 65 to 85 | ++ (activity was measured to be between 0.7 μM and 3.0 μM) | < 55 | + (activity was measured to be greater than or equal to 4.0 μM)
CC(C)OC(=O)N1C2CCC1CC(N1CCC3(CC1)CN(C(=O)O[C@@H]1CCOC1)c1ccc(F)cc13)C2 (some centres unmarked) [compound 361] | < 65 | ++ (activity was measured to be between 0.7 μM and 3.0 μM) | < 55 | + (activity was measured to be greater than or equal to 4.0 μM)
CCOC(=O)N1C2CCC1CC(N1CCC3(CC1)CN(C(=O)N(C)C)c1ccc(F)cc13)C2 (centres unmarked) [compound 362] | 65 to 85 | ++ (activity was measured to be between 0.7 μM and 3.0 μM) | < 55 | + (activity was measured to be greater than or equal to 4.0 μM)
O=C(OCC1CCCO1)N1C2CCC1CC(N1CCC3(CC1)COc1ccc(F)cc13)C2 (centres unmarked) [compound 363] | < 65 | ++ (activity was measured to be between 0.7 μM and 3.0 μM) | < 55 | + (activity was measured to be greater than or equal to 4.0 μM)
C#CCOC(=O)N1CCC(CN2CCC3(CC2)C[C@H](NC(C)=O)c2ccccc23)CC1 [compound 364] | > 85 | +++ (activity was measured to be less than or equal to 0.7 μM) | < 55 | + (activity was measured to be greater than or equal to 4.0 μM)
CCOC(=O)N1C2CCC1CC(N1CCC3(CCc4ccccc43)CC1)C2 (centres unmarked) [compound 365] | 65 to 85 | +++ (activity was measured to be less than or equal to 0.7 μM) | < 55 | + (activity was measured to be greater than or equal to 4.0 μM)
CC(=O)N1CC2(CCN(CC3CC4CCC3CC4)CC2)c2cc(F)ccc21 (centres unmarked) [compound 366] | < 65 | ++ (activity was measured to be between 0.7 μM and 3.0 μM) | < 55 | + (activity was measured to be greater than or equal to 4.0 μM)
